According to paper PMC8661032, “Broad-Spectrum Antibacterial Peptide Kills Extracellular and Intracellular Bacteria Without Affecting Epithelialization” (Frontiers in Microbiology, 2021):
≈ marks a conversion by molar mass, not a printed value. Residues, ends and D or L forms follow the SMILES beside them.

Experiments:
P. aeruginosa = test: microbe, parasite or virus in culture; settings: 24 h
Experimental: (§1) Briefly, bacterial colonies from blood agar plates were suspended and grown in Cation-Adjusted Mueller-Hinton Broth (CAMHB, […] Ca^2+, […] Mg^2+). The bacterial suspension was adjusted to 0.5 McFarland standard (∼1 × 10^8 colony-forming units (CFU)/ml) and serial diluted 1:200 in CAMHB (∼5 × 10^5 CFU/mL). […] The suspension was plated out on blood agar plates to confirm the CFU/ml. Both the microtiter plates and the blood agar plates were incubated at 37°C for 24 h.

E. cloacae = test: microbe, parasite or virus in culture; settings: 24 h
Experimental: as §1

E. coli [1] = test: microbe, parasite or virus in culture; settings: 24 h
Experimental: as §1

K. pneumoniae = test: microbe, parasite or virus in culture; settings: 24 h
Experimental: as §1

E. faecium = test: microbe, parasite or virus in culture; settings: 24 h
Experimental: as §1

S. aureus = test: microbe, parasite or virus in culture; settings: 24 h
Experimental: as §1

A. baumannii = test: microbe, parasite or virus in culture; settings: 24 h
Experimental: as §1

HaCaT keratinocytes = type: cell-based, human; settings: betatide 2 μg/ml, 3-mm gap, similar to the uninfected cells
Experimental: Bacterial growth was examined by plating of supernatants.
Epithelialization was calculated from the change in the area of the gaps over time using freehand or rectangular selections in the software Fiji ImageJ 1.52p (National Institutes of Health, United States).
=(AreaofgapinDay 1-Areaofgapineachconsecutiveday)/AreaofgapinDay 1

bacteria = test: MIC comparisons between peptide variants (bacterium not stated); type: cell-based; settings: betatide compared to ATX-101
Cpx mutant E. coli cells = Cpx mutant E. coli cells with constitutive active Cpx response; ref Frimodt-Moller et al., 2021; cited from earlier work
Excerpt: This, in turn, can reduce the fitness of the bacteria, similar to what has been shown for another peptide targeting the β-clamp called griselimycin.

HEK293 cells = test system: HEK293 cells
Experimental: HEK293 cells (6,000 cells/well) were seeded in 96-well microtiter plates. After 4 h, APIM-peptides (12–48 μg/ml) were added, and the cells were incubated without change of media for up to 4 days. Viability was measured using the 3-(4,5-dimethylthiazol-2-yl)-2,5-diphenyltetrazolium bromide (MTT) assay as described ([Gilljam et al., 2009]).
(1 picture or pasted object on this page, not shown here)

E. coli [2] = test: Rifampicin (RifR) mutagenesis assay after UV-C; type: cell-based, Escherichia coli; settings: 20 μg/ml peptide, UV-C 20 mJ/cm^2, RifR assay, relative to untreated control
Experimental: The rifampicin (Rif^R) mutagenesis assay was performed as described ([Nedal et al., 2020]). Briefly, an overnight culture of E. coli was diluted 1:1,000 and grown until an OD600 of 0.01. APIM-peptides (20 μg/ml) were added to LB media with glass beads (for uniform distribution of APIM-peptides) and incubated for 30 min at 37°C. The pellets were next collected, resuspended in 500 μl PBS, and exposed to UV-C (20 mJ/cm^2) in a six-well plate at 4°C. The unexposed bacteria (-UV) were otherwise handled exactly like the UV-exposed bacteria. Next, the cells were resuspended in LB media and incubated in a rotary shaker at 37°C at 250 rpm for 2 h before being harvested, diluted, and plated on LB with soft agar with and without rifampicin (100 μg/ml). Mutation frequency, Rif^R/10^8, is obtained as follows: (number of colonies on the rifampicin plate (Rif^R)/(number of colonies on LB plates without antibiotics), per milliliter of bacterial suspension. […]
mutagenesis in E. coli more efficiently than the other peptide variants.
Increase in mutation frequencies after treatment with UV-C (20 mJ/cm2) relative to spontaneous mutations frequencies using the RifR assay were determined. This increase is set to 100% for untreated control, and % reduction after addition of peptides 1-5 (20 μg/mL) are shown. Mean ± SD from three independent experiments. * p<0.05, ** p<0.005

[3] = test system: intracellular S. aureus ATCC 29213 in HaCaT cells; test: Intracellular infection model; type: cell-based, Staphylococcus aureus
Experimental: The intracellular infection model used was modified from [Iqbal et al. (2016)] by optimizing the number of multiplicity of infection (MOI: number of bacteria per cell) and time of infection. Briefly, HaCaT cells (6.5 × 10^4/well) were seeded in 24-well plates and incubated overnight in a medium without antibiotics. The next day, approximately 1.25 × 10^5 cells/well were infected with S. aureus at an MOI of 100 in antibiotic-free media. The plates were incubated for 3 h. […] After 16 h of incubation, the extracellular media (100 μl) from each well were plated to confirm the eradication of extracellular S. aureus. Next, the cells were washed 2× with 500 μl PBS before they were lysed with 0.2% Triton-X (500 μl) for 30 min at room temperature. The lysed samples were placed on ice, and 500 μl cold Tryptic Soy Broth was added before they were plated on blood agar plates.

E. coli [4] = test: Growth inhibition assay (OD600 over 24 h); type: cell-based, Escherichia coli; parameters: Reduction of viability E. coli (60 μg/ml): key to the marks not given beside the values; settings: LB medium
Experimental: An overnight culture of Escherichia coli was diluted 1:100 in Luria-Bertani (LB) medium and allowed to grow until an optical density (OD) at 600 nm (OD600) of 0.06–0.1. APIM-peptides were prepared by serial dilution in Milli-Q H2O and kept at 4°C. Fresh LB medium (60 μl) was added to a flat-bottom microtiter plate. The bacterial suspension was diluted 1:100 in LB, and 75 μl of this suspension was added to the wells. Finally, 15 μl of APIM-peptide solution (to final concentrations 60, 120, and 240 μg/ml) or distilled water (positive control) was added to the wells, reaching a total volume of 150 μl per well. Data are presented only for the dose that separated the effect of the different peptides, i.e., 60 μg/ml. A blank sterile medium was used as negative control. The plates were incubated with shaking at 510 rpm at 37°C inside a plate reader (TECAN, Spark®), and OD was read every hour over a period of 24 h.
The MIC for E. coli in LB medium is higher than that in CAMHB; thus, concentrations higher than the MIC given in Table 2 are used in the growth inhibition and mutagenesis assays. […]
E. coli. Growth of E. coli in LB medium over 24 hours (Optical Density (OD) 600 nm) after addition
of APIM-peptide variants 1-5 (60 µg/mL) at time t=0 (see Table 2). Negative (-) control is no
bacteria added, positive (+) control is untreated bacteria.
highest inhibition of growth.
control (black filled line).

[5] = test system: S. epidermidis MRSE (SO-SEP9-1); settings: SO-SEP9-1, 24 h
Experimental: as §1

**Q.** Which MIC (P. aeruginosa) does the source give for `CC[C@H](C)[C@H](NC(=O)CNC(=O)[C@H](CCCCN)NC(=O)[C@@H](NC(=O)[C@H](CC(C)C)NC(=O)[C@H](Cc1c[nH]c2ccccc12)NC(=O)[C@H](CCCNC(=N)N)NC(=O)[C@H](CC(=O)O)NC(=O)[C@H](CCSC)NC(C)=O)C(C)C)C(=O)N[C@@H](CC(C)C)C(=O)N[C@@H](CCC(N)=O)C(=O)N[C@@H](Cc1c[nH]c2ccccc12)C(=O)N[C@@H](CCCNC(=N)N)C(=O)N[C@@H](CCCCN)C(=O)N[C@H](C(=O)N[C@@H](CCCNC(=N)N)C(=O)N[C@@H](CCCNC(=N)N)C(=O)N[C@@H](CCCNC(=N)N)C(=O)N[C@@H](CCCNC(=N)N)C(=O)N[C@@H](CCCNC(=N)N)C(=O)N[C@@H](CCCNC(=N)N)C(=O)N[C@@H](CCCNC(=N)N)C(=O)N[C@@H](CCCNC(=N)N)C(=O)N[C@@H](CCCNC(=N)N)C(=O)N[C@@H](CCCNC(=N)N)C(=O)N[C@@H](CCCNC(=N)N)C(N)=O)[C@@H](C)CC` [betatide] (Ac-MDRWLVKGILQWRKIRRRRRRRRRRR-NH2) here?
**A.** The MIC was 16 µg/mL (≈ 4.32 µM).

**Q.** What about the MIC (E. cloacae) of the same molecule?
**A.** The MIC was 16 µg/mL (≈ 4.32 µM).

**Q.** What about the MIC (E. coli [1]) of the same molecule?
**A.** Its MIC is 16 µg/mL (≈ 4.32 µM).

**Q.** What about the MIC (E. coli [1]; Clinical isolate SO-ECO19-1 (ESBL-CARB-A(CTX-M-24)/D(OXA-48)), CAMHB, three independent experiments) of the same molecule?
**A.** Its MIC is 16 µg/mL (≈ 4.32 µM).

**Q.** And the “MIC E. coli” value (E. coli [1]; K-12 MG1655, CLSI broth microdilution, CAMHB, 37°C, visible growth, net peptide concentration)?
**A.** The value was 16 µg/mL (≈ 4.32 µM).

**Q.** What about the MIC (K. pneumoniae) of the same molecule?
**A.** Its MIC is 16 µg/mL (≈ 4.32 µM).

**Q.** What about the MIC (E. faecium) of the same molecule?
**A.** The MIC was 8 µg/mL (≈ 2.16 µM).

**Q.** What about the MIC (S. aureus) of the same molecule?
**A.** Its MIC is 32 µg/mL (≈ 8.65 µM).

**Q.** And the MIC (S. aureus; Clinical isolate SO-SAU19-1 (MRSA), CAMHB, three independent experiments)?
**A.** Its MIC is 16 µg/mL (≈ 4.32 µM).

**Q.** What about the MIC (S. aureus; Reference strain ATCC 29213, CAMHB, three independent experiments) of the same molecule?
**A.** Its MIC is 16 µg/mL (≈ 4.32 µM).

**Q.** What about the MIC (A. baumannii) of the same molecule?
**A.** The MIC was 8 µg/mL (≈ 2.16 µM).

**Q.** And the MIC (A. baumannii; Clinical isolate SO-ABA19-1 (ESBL-CARBA-D), CAMHB, three independent experiments)?
**A.** The MIC was 8 µg/mL (≈ 2.16 µM).

**Q.** And the “epithelialization of MRSE-infected HaCaT cells” value (HaCaT keratinocytes)?
**A.** Its value is “completed at day 4”.

**Q.** And the “concentration tolerated by uninfected HaCaT cells” value (HaCaT cells)?
**A.** The value was “up to 40 μg/ml”.

**Q.** What about the “reduction of MIC by changes in the linker region” value (bacteria; from Table 2) of the same molecule?
**A.** The value was roughly 2 ×.

**Q.** And the “reduction of MIC by amidation of the C-termini” value (bacteria; unpublished data)?
**A.** Its value is roughly 4 ×.

**Q.** And the “increase in MIC” value (Cpx mutant E. coli cells)?
**A.** The value was 2 ×.

**Q.** And the “Reduction of viability HEK293 (24 μg/ml)” value (HEK293 cells)?
**A.** Its value is “+”.

**Q.** And the “Reduction of mutation frequency E. coli (20 μg/ml)” value (E. coli [2])?
**A.** The value was “++++”.

**Q.** And the “reduction in intracellular bacterial load” value ([3]; betatide 24 μg/ml for 16 h, MOI 100, 3 h infection, extracellular bacteria killed by gentamicin, compared to untreated control)?
**A.** The value was 4 ×.

**Q.** And the “intracellular bacterial load (CFU)” value ([3]; concentrations of betatide lower than 24 μg/ml, 16 h)?
**A.** Its value is “did not cause a significant reduction in CFU”.

**Q.** What about the “inhibition of growth of E. coli (OD 600 nm)” value (E. coli [4]; 60 µg/mL, over 24 hours, Supplementary Figure S1) of the same molecule?
**A.** Its value is “lowest OD after 8 hours”.

**Q.** And the “Reduction of viability E. coli (60 μg/ml)” value (E. coli [4]; 60 μg/ml peptide, OD600 every hour over 24 h, relative to untreated control)?
**A.** Its value is “++++”.

**Q.** What about the “MIC S. epidermidis MRSE” value [5] of the same molecule?
**A.** Its value is 16 µg/mL (≈ 4.32 µM).

**Q.** What about the “MIC for MRSE in DMEM” value [5] of the same molecule?
**A.** Its value is 0.25 µg/mL.
